# Laboratory results reported in paper PMC12409580, “Modulating Receptor Activity, Immune Response, and Kinetic Solubility: The Impact of Linker Chemistry in Conjugated NOD2/TLR4 Agonists” (ACS Omega, 2025).
# Entries after “also recorded” stand apart in the source; their conditions may differ. Marks after values point to notes of the source that are not given here.
# Key:
# human PBMCs = details: 1 μM, 18 h
# [1] = Kinetic solubility in PBS (HPLC solubility assay); details: PBS, aqueous buffer, kinetic from dmso stock
# NOD2 = NOD2 (Homo sapiens, UniProt Q9HC29); experiment: NOD2 NF-κB SEAP reporter assay in HEK-Blue hNOD2 cells
# Chain of NOD2 (Q9HC29 whole entry): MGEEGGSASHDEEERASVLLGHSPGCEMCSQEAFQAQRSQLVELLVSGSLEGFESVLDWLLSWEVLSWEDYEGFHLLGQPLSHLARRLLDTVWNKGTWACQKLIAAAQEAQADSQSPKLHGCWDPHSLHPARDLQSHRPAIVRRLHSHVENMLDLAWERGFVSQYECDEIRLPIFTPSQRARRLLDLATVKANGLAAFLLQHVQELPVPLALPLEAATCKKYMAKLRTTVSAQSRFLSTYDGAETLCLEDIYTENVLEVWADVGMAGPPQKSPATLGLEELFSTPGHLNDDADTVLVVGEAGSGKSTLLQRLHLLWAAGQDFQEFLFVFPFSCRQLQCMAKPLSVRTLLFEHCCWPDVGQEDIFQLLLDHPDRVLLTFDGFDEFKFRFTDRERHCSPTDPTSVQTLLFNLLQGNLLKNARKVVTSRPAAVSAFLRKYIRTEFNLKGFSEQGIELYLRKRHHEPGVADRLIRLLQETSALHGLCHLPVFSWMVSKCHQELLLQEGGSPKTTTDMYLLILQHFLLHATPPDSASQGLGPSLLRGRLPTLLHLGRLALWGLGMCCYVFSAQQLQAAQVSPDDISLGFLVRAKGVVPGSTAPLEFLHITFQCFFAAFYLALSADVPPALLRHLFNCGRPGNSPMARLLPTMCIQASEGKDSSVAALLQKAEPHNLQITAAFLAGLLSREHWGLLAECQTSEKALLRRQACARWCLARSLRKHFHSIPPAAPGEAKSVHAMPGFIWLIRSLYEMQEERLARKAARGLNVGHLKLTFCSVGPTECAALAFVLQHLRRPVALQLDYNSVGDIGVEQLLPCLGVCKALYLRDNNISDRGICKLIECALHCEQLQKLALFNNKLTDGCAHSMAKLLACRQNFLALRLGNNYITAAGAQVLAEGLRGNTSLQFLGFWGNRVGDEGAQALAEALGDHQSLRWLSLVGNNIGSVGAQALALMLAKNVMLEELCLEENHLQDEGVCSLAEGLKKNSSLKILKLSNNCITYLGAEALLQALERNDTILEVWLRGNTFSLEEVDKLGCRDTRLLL
# TLR4 = TLR4 (Homo sapiens, UniProt O00206+Q9Y6Y9); experiment: TLR4 NF-κB SEAP reporter assay in HEK-Blue hTLR4 cells
# Chain of TLR4 (O00206 24-839): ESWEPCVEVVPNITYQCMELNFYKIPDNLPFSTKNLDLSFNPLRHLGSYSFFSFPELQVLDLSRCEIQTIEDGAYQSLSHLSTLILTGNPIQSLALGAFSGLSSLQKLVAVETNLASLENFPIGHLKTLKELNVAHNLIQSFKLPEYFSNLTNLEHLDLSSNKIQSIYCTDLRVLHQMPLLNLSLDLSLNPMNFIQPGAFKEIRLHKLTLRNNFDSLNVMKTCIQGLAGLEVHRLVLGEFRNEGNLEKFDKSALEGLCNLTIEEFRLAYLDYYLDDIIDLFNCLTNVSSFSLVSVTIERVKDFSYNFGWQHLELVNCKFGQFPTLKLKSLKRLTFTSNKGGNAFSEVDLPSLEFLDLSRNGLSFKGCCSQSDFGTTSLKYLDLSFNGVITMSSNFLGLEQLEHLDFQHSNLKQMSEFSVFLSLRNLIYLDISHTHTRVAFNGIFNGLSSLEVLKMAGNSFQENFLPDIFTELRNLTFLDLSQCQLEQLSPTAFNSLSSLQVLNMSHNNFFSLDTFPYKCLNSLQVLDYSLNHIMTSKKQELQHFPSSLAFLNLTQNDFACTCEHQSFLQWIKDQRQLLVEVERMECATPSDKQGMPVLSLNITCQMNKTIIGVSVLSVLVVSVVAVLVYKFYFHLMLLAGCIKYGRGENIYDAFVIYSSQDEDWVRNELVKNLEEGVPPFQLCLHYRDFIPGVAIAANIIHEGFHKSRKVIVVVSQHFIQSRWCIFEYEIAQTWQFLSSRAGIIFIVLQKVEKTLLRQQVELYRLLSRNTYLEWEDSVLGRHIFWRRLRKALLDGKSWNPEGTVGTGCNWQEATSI
# Chain of TLR4 (Q9Y6Y9 17-160 limits assumed): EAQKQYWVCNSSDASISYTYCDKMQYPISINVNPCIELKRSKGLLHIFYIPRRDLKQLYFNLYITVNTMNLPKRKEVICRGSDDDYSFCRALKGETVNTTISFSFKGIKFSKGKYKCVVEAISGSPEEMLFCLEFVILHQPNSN
# [2] = parameters: method as in previously reported; details: ref previously reported; cited from earlier work
# [3] = parameters: method as in previous studies; details: kinetic solubility; ref previous studies; cited from earlier work
# [4] = Solubility sample 1, Tables S1–S3, replicate 1
# [5] = Solubility sample 2, Tables S1–S3, replicate 2
# [6] = solubility in PBS, kinetic solubility, HPLC solubility assay
# [7] = 10 μM, 18 h, NF-κB transcriptional activity (SEAP) relative to 0.1% DMSO
"NOD2 activation, fold increase (NOD2; 2 μM, 18 h, NF-κB transcriptional activity (SEAP) relative to 0.1% DMSO)",SMILES,overall cytokine production (human PBMCs),"production of IL-6, IL-10, TNF-α, and IFN-γ (human PBMCs)","solubility [1, 4] [µM]","solubility [1, 5] [µM]","solubility [1, 6] [µM]","NOD2 activation at 10 μM, fold increase (NOD2; [7]) [fold increase]",NOD2 agonist activity (NOD2; compared with NOD2 agonist 3 and MDP (4 μM)),"TLR4 activation at 10 μM, fold increase (TLR4; [7]) [fold increase]","maximum TLR4 activation (TLR4; HEK-Blue hTLR4, 21 at 10 μM) [fold]",concentration at which compound activated TLR4 (TLR4; dose-response 0.5–10 μM (17–21) or 1–100 μM (27–31)) [µM],immunostimulatory activity [2],solubility in PBS [3]
,"CCOC(=O)[C@@H](CCC(=O)N1CCC(CN2CCN(C(=O)Cc3ccc(C(C(=O)NC4CCCC4)N(C(=O)c4cc(-c5ccccc5)n(-c5ccccc5)n4)c4ccc5c(c4)CCC5)cc3)CC2)CC1)NC(=O)[C@@H](NC(=O)CNC(=O)/C=C/c1ccc(O)c(OC)c1)C(C)C (stereo partly drawn) [Compound 21, Ethyl (2R)-5-(4-((4-(2-(4-(2-(Cyclopentylamino)-1-(N-(2,3-dihydro-1H-inden-5-yl)-1,5-diphenyl-1H-pyrazole-3-carboxamido)-2-oxoethyl)phenyl)acetyl)piperazin-1-yl)methyl)piperidin-1-yl)-2-((S)-2-(2-((E)-3-(4-hydroxy-3-methoxyphenyl)acrylamido)acetamido)-3-methylbutanamido)-5-oxopentanoate]",most potent immunomodulator in the series,moderately enhanced,0.34,0.32,0.33,3.31,comparable efficiency to MDP,5.30,5.30,0.5,,
,"COc1cc(/C=C/C(=O)NCC(=O)N[C@H](C(=O)N[C@H](CCC(=O)OC2CCCC2)C(=O)OC2CCCC2)C(C)C)ccc1OC(=O)CCCCCNC(=O)CSc1nc2c([nH]c3ccccc32)c(=O)n1-c1ccccc1 [Compound 2, reference compound]",,,0.26,0.44,0.35,,,,,,inactivity; also recorded: lacked immunostimulatory activity,
3.06 ^d fold increase,"CCOC(=O)C(CCC(=O)O)NC(=O)C(NC(=O)CNC(=O)C=Cc1ccc(O)c(OC)c1)C(C)C (stereo not shown) [Compound 3, reference compound]",,,,,,,,,,,,414.8 ^c μM
